In test [1] the test system is YUMM 1.7 cells (BRafV600E/wt Pten−/−Cdkn2−/−). In words: YUMM 1.7 melanoma in C57BL/6 mice treated with G-1 with and without αPD-1. Particulars: YUMM 1.7, treatment initiated at day 14. It counts as in vivo, mouse. The source says:
FIGS. 14A-14F illustrate the finding that treatment of melanoma bearing mice with G-1 and αPD-1 immunotherapy dramatically extends survival. FIG. 14A: Experimental timeline of B16F10 bearing mice treated with vehicle or G-1, as well as αPD-1 antibody or isotype antibody control (2A3), n=10 per group. FIG. 14B: Tumor volumes of treatment groups at Day 14, * denotes significance One-way ANOVA with Tukey's multiple comparison test. FIG. 14C: Survival curve of mice treated with vehicle or G-1, as well as isotype antibody control (2A3) or αPD-1 antibody. FIG. 14D: Experimental outline of YUMM1.7 bearing mice treated with vehicle or G-1, as well as isotype antibody control (2A3) or αPD-1 antibody. Treatment was started at day 14 after tumors reached 4-5 mm in diameter. n=5 per group. FIG. 14E: Tumor volumes over time of treatment groups. FIG. 14F: Survival curve of mice treated with vehicle or G-1, as well as αPD-1 antibody or isotype antibody control (2A3).
Although B16F10 melanoma is the most commonly used model for melanoma immunology studies, and experimental results have largely translated to humans, B16F10 lacks the BRaf or NRas oncodriver mutations present in most human melanomas. […]

Test [2] has as its system NSCLC line LLC1. In words: proliferation assay of LLC1 treated with G-1. It counts as cell-based. The note with it: LLC1, 500 nM, 6 days. As for the experimental part: FIGS. 18A-18G illustrate the finding that GPER signaling reduces NSCLC cell proliferation in vitro and in vivo and has combinatorial effects with αPD-1 immunotherapy. FIG. 18A: Western blot for pCREB of LLC1 cells treated with 500 nM G-1 for 30 minutes. FIG. 18B: Proliferation assay of LLC1 treated with 500 nM G-1 for 6 days. FIG. 18C: Western blot for c-Myc of LLC1 cells treated with 500 nM G-1 for 6 days. FIG. 18D: Western blot for c-Myc of LLC1 cells treated with 500 nM G-1 over a time-course. […] FIG. 18F: Tumor volumes over time of LLC1 tumor bearing mice treated with vehicle or G-1, as well as αPD-1 antibody or isotype antibody control (2A3). FIG. 18G: Survival curve of mice treated with vehicle or G-1, as well as αPD-1 antibody or isotype antibody control (2A3).

`CC(=O)c1ccc2c(c1)[C@@H]1C=CC[C@@H]1[C@H](c1cc3c(cc1Br)OCO3)N2` (relative stereo) [Compound G-1, rel-1-[4-(6-bromo-1,3-benzodioxol-5-yl)-3aR,4S,5,9bS-tetrahydro-3H-cyclopenta[c]quinolin-8-yl]-ethanone]: the survival entry in test [1] was “modest, but significant, survival increases”. In addition, the proliferation result in test [2] is given as “decreased proliferation”.

Source of the values: patent publication US11369618B2, “Compounds, compositions and methods for prevention and/or treatment of cancer” (THE TRUSTEES OF THE UNIVERSITY OF PENNSYLVANIA, priority 2016, dated 2022).
